Experimental findings from patent US10287253B2, “Substituted pyrimidines containing acidic groups as TLR7 modulators” (Apros Therapeutics, Inc., priority 2016, dated 2019) are described below.

By EC50 is commonly meant the concentration giving half of the maximal effect. A high value points to a need for much substance.

System in one data set: not listed separately
Briefly: Pharmacokinetics experiments: mouse liver-to-serum concentration (L:S). Type of data set: in vivo. The note with it: BALB/c mice, 10 mg/kg p.o., 5 hour post dose. The procedure:
BALB/c mice were dosed p.o. with 10 mg/kg compound formulated in 0.5% carboxy methycellulose+0.5% Tween-80 suspension. Mice were bled retro-orbitally at different time points post dose. Blood was processed into serum by centrifugation followed by protein precipitation, reverse-phase gradient elution and MRM detection via ESI+mass spectrometry to determine compound concentration. Animals were sacrificed after the final blood collection (5 hour), liver removed and flash frozen in liquid nitrogen for tissue PK analyses. The liver-to-serum concentration (L:S) at 5 hour post dose is one parameter for identifying compounds with potential enrichment in liver.
Mouse liver-to-serum concentration (L:S) table below provides results.
`CCCC[C@@H](CC(=O)O)Nc1nc(N)nc(C)c1Cc1ccccc1OC` [Compound 41, (S)-3-((2-amino-5-(2-methoxybenzyl)-6-methylpyrimidin-4-yl)amino)heptanoic acid]: the “L:S at 5 hr (liver-to-serum concentration)” value is on record as “B (B = 10-100 represents moderate liver-enrichment)”.
Same read-out and setting: as for `CCCC[C@@H](CCS(C)(=O)=O)Nc1nc(N)nc(C)c1Cc1cc(Cc2nn[nH]n2)ccc1OC` [Compound 23, (S)-5-(5-((2H-tetrazol-5-yl)methyl)-2-methoxybenzyl)-6-methyl-N^4-(1-(methylsulfonyl)heptan-3-yl)pyrimidine-2,4-diamine], the entry is “A (A = >100 represents high liver-enrichment)”.
As to `CCCC[C@@H](CCSC)Nc1nc(N)nc(C)c1Cc1cc(Cc2nn[nH]n2)ccc1OC` [Compound 22, (S)-5-(5-((2H-tetrazol-5-yl)methyl)-2-methoxybenzyl)-6-methyl-N^4-(1-(methylthio)heptan-3-yl)pyrimidine-2,4-diamine], the “L:S at 5 hr (liver-to-serum concentration)” value is recorded as “A (A = >100 represents high liver-enrichment)”.

In a further data set the target is human TLR7 (hTLR7) (Homo sapiens (Human), UniProt Q9NYK1). Briefly: HEK TLR7 assay (HEK-Blue hTLR7 cells, NF-kB/AP-1 SEAP reporter). The class given is cell-based. To be noted: HEK-Blue hTLR7 cells, 16 h incubation, SEAP read at 620-655 nm. The source says: HEK-Blue™ TLR7 cells were purchased from Invivogen (San Diego, Calif.). The following description was taken from the product information sheet.
Chain of human TLR7 (hTLR7) (Q9NYK1 27-1049): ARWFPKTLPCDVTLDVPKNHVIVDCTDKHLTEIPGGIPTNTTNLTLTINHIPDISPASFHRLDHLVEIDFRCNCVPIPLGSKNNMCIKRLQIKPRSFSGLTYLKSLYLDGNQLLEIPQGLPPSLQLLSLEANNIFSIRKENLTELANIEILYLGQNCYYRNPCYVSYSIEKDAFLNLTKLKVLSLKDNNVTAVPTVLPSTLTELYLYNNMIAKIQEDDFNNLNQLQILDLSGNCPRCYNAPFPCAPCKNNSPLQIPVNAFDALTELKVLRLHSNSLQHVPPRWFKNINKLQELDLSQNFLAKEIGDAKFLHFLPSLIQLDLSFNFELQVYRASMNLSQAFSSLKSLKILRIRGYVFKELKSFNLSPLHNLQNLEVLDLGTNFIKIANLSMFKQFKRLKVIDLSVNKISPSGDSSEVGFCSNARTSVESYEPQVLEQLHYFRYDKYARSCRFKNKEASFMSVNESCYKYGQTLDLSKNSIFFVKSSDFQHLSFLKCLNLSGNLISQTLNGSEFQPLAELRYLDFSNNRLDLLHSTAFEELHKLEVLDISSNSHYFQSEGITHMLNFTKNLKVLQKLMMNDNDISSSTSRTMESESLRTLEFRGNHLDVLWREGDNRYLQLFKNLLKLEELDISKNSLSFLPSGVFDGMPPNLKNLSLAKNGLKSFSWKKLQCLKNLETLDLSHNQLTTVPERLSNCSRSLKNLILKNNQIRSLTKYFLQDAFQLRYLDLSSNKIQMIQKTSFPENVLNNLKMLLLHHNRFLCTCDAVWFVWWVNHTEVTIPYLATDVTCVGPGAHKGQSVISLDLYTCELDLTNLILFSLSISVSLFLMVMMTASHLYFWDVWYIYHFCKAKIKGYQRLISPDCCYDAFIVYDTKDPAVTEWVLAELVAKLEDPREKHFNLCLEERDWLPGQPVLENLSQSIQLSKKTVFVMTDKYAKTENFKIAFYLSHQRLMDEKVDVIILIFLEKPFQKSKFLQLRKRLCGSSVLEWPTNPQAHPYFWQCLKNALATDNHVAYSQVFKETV
“HEK-Blue™ hTLR7 cells are designed for studying the stimulation of human TLR7 (hTLR7) by monitoring the activation of NF-kB. HEK-Blue™ hTLR7 cells were obtained by co-transfection of the hTLR7 gene and an optimized secreted embryonic alkaline phosphatase (SEAP) reporter gene into HEK293 cells. The SEAP reporter gene is placed under the control of the IFN-b minimal promoter fused to five NF-kB and AP-1-binding sites. Stimulation with a TLR7 ligand activates NF-kB and AP-1 which induce the production of SEAP, which is detected by the HEK-Blue™ Detection cell culture medium.”
A typical assay protocol involved the following steps: • 1. Cells were cultured according to the product information sheet. • 2. 10 mM compound stock in DMSO were first diluted to 3 mM and then 3-fold serially diluted using DMSO to afford a 10-pt dilution. • 3. 3 μl of the diluted DMSO were added to 57 μl HEK-Blue™ Detection media for a further 20-fold dilution. • 4. 10 μl of the diluted compound in assay media were added into 40 μl cell culture (in HEK-Blue™ Detection media) in 384-well plate. Final cell concentration=8,000 cells per well. • 5. The plates were incubated at 37° C. in 5% CO2 for 16 h. SEAP was determined using a spectrophotometer at 620-655 nm.
In the case of `CCCC[C@@H](CC(=O)O)Nc1nc(N)nc(C)c1Cc1ccccc1OC` [Compound 41, (S)-3-((2-amino-5-(2-methoxybenzyl)-6-methylpyrimidin-4-yl)amino)heptanoic acid], the EC50 lay in the range of 100 to 1000 nM.
The same measure, in the same setting: for `CCCCNc1nc(N)nc(CCc2nn[nH]n2)c1Cc1ccccc1OC` [Compound 37, 6-(2-(2H-tetrazol-5-yl)ethyl)-N^4-butyl-5-(2-methoxybenzyl)pyrimidine-2,4-diamine] the value was 100 to 1000 nM; for `CCCCNc1nc(N)nc(C)c1Cc1cc(Cc2nnn(CC(=O)O)n2)ccc1OC` [Compound 5, 2-(5-(3-((2-amino-4-(butylamino)-6-methylpyrimidin-5-yl)methyl)-4-methoxybenzyl)-2H-tetrazol-2-yl)acetic acid], 1000 to 10000 nM.
Same read-out and setting: as for `CCCCNc1nc(N)nc(C)c1Cc1cc(Cc2nnnn2CC(=O)O)ccc1OC` [Compound 6, 2-(5-(3-((2-amino-4-(butylamino)-6-methylpyrimidin-5-yl)methyl)-4-methoxybenzyl)-1H-tetrazol-1-yl)acetic acid], the figure is 1000 to 10000 nM; as for `CCCCNc1nc(N)nc(C)c1Cc1cc(C(=O)NCCCc2nn[nH]n2)ccc1OC` [Compound 28, N-(3-(2H-tetrazol-5-yl)propyl)-3-((2-amino-4-(butylamino)-6-methyl-pyrimidin-5-yl)methyl)-4-methoxybenzamide], 1000 to 10000 nM; as for `CCCC[C@@H](CCSC)Nc1nc(N)nc(CCC(=O)O)c1Cc1cc(Cc2nn[nH]n2)ccc1OC` [Compound 48, (S)-3-(5-(5-((2H-tetrazol-5-yl)methyl)-2-methoxybenzyl)-2-amino-6-((1-(methylthio)-heptan-3-yl)amino)pyrimidin-4-yl)propanoic acid], less than 100 nM.
`CCCC[C@@H](CCc1nn[nH]n1)Nc1nc(N)nc(C)c1Cc1ccccc1OC` [Compound 36, (S)—N^4-(1-(2H-tetrazol-5-yl)heptan-3-yl)-S-(2-methoxybenzyl)-6-methylpyrimidine-2,4-diamine] displayed an EC50 of 100 to 1000 nM.
On to `CCC[C@@H](CO)Nc1nc(N)nc(C)c1Cc1cc(Cc2nn[nH]n2)ccc1OC` [Compound 8, (S)-2-((5-(5-((2H-tetrazol-5-yl)methyl)-2-methoxybenzyl)-2-amino-6-methylpyrimidin-4-yl)amino)pentan-1-ol], for which the EC50 fell in the range of 100 to 1000 nM.
`CCCC[C@@H](CCOC)Nc1nc(N)nc(CCC(=O)O)c1Cc1cc(Cc2nn[nH]n2)ccc1OC` [Compound 49, (S)-3-(5-(5-((2H-tetrazol-5-yl)methyl)-2-methoxybenzyl)-2-amino-6-((1-methoxyheptan-3-yl)amino)pyrimidin-4-yl)propanoic acid] showed an EC50 of 100 to 1000 nM.
On the same count and under the same terms, as for `CCCC[C@@H](CCO)Nc1nc(N)nc(CCC(=O)O)c1OC` [Compound 21, (S)-3-(2-amino-6-((1-hydroxyheptan-3-yl)amino)-5-methoxypyrimidin-4-yl)propanoic acid], the figure is 1000 to 10000 nM; as for `CCCCNc1nc(N)nc(C)c1Cc1cc(CCC(=O)O)ccc1OC` [Compound 4, 3-(3-((2-amino-4-(butylamino)-6-methylpyrimidin-5-yl)methyl)-4-methoxyphenyl)propanoic acid], 1000 to 10000 nM; as for `CCCC[C@H](CC(=O)O)Nc1nc(N)nc(C)c1Cc1cc(Cc2nn[nH]n2)ccc1OC` [Compound 20C, (R)-3-((5-(5-((2H-tetrazol-5-yl)methyl)-2-methoxybenzyl)-2-amino-6-methylpyrimidin-4-yl)amino)heptanoic acid], 1000 to 10000 nM.
Compound `CCCC(C)Nc1nc(N)nc(C)c1Cc1cc(Cc2nn[nH]n2)ccc1OC` (stereo not drawn) [Compound 39, 5-(5-((2H-tetrazol-5-yl)methyl)-2-methoxybenzyl)-6-methyl-N^4-(pentan-2-yl)pyrimidine-2,4-diamine] displayed an EC50 of 100 to 1000 nM.
Still for that read-out and setting: for `CCCC[C@@H](CCS(C)(=O)=O)Nc1nc(N)nc(C)c1Cc1cc(CC(=O)O)ccc1OC` [Compound 51, (S)-2-(3-((2-amino-4-methyl-6-((1-(methylsulfonyl)heptan-3-yl)amino)pyrimidin-5-yl)methyl)-4-methoxyphenyl)acetic acid] the value was 100 to 1000 nM.
As for `CCCCNc1nc(N)nc(C)c1Cc1cc(C2(C(=O)O)CC2)ccc1OC` [Compound 14, 1-(3-((2-amino-4-(butylamino)-6-methylpyrimidin-5-yl)methyl)-4-methoxyphenyl)cyclopropane-1-carboxylic acid], the EC50 was in the range of 1000 to 10000 nM.
For the compound `CCCC[C@@H](CCSC)Nc1nc(N)nc(CCC(=O)O)c1Cc1ccccc1OC` [Compound 38, (S)-3-(2-amino-5-(2-methoxybenzyl)-6-((1-(methylthio)heptan-3-yl)amino)pyrimidin-4-yl)propanoic acid], the EC50 is less than 100 nM.
The same measure, in the same setting: as for `CCCC[C@@H](CCO)Nc1nc(N)nc(CCC(=O)O)c1Cc1ccccc1OC` [Compound 27, (S)-3-(2-amino-6-((1-hydroxyheptan-3-yl)amino)-5-(2-methoxybenzyl)-pyrimidin-4-yl)propanoic acid], the figure is 100 to 1000 nM; as for `CCCCNc1nc(N)nc(C)c1Cc1ccc(Cc2nn[nH]n2)cc1OC` [Compound 2, 5-(4-((2H-tetrazol-5-yl)methyl)-2-methoxybenzyl)-N4-butyl-6-methylpyrimidine-2,4-diamine], 1000 to 10000 nM.
Same read-out and setting: for `CCCCNc1nc(N)nc(C)c1Cc1ccc(CCC(=O)O)cc1OC` [Compound 1, 3-(4-((2-amino-4-(butylamino)-6-methylpyrimidin-5-yl)methyl)-3-methoxyphenyl)propanoic acid] the value was 1000 to 10000 nM; for `CCCCNc1nc(N)nc(C)c1Sc1cc(Cc2nn[nH]n2)ccc1OC` [Compound 31, 5-((5-((2H-tetrazol-5-yl)methyl)-2-methoxyphenyl)thio)-N^4-butyl-6-methylpyrimidine-2,4-diamine], 1000 to 10000 nM; for `CCCCNc1nc(N)nc(C)c1Cc1cc(CP(=O)(O)O)ccc1OC` [Compound 7, (3-((2-amino-4-(butylamino)-6-methylpyrimidin-5-yl)methyl)-4-methoxybenzyl)phosphonic acid], 1000 to 10000 nM.
`CCCCNc1nc(N)nc(C)c1Cc1cc(C(=O)NCCS(=O)(=O)O)ccc1OC` [Compound 16, 2-(3-((2-amino-4-(butylamino)-6-methylpyrimidin-5-yl)methyl)-4-methoxybenzamido)ethane-1-sulfonic acid] had an EC50 of 100 to 1000 nM.
Same read-out and setting: as for `CCCCNc1nc(N)nc(CCCO)c1Cc1ccccc1OC` [Compound 47, 3-(2-amino-6-(butylamino)-5-(2-methoxybenzyl)pyrimidin-4-yl)propan-1-ol], the figure is 100 to 1000 nM; as for `CCCCCNc1nc(N)nc(C)c1Cc1cc(Cc2nn[nH]n2)ccc1OC` [Compound 26, 5-(5-((2H-tetrazol-5-yl)methyl)-2-methoxybenzyl)-6-methyl-M-pentylpyrimidine-2,4-diamine], 100 to 1000 nM.
Same read-out and setting: as for `CCCCNc1nc(N)nc(CCC(=O)O)c1CCc1ccc(OC)cc1` [Compound 19, 3-(2-amino-6-(butylamino)-5-(4-methoxyphenethyl)pyrimidin-4-yl)pro-panoic acid], the figure is 1000 to 10000 nM; as for `CCCC[C@@H](CCS(C)(=O)=O)Nc1nc(N)nc(CCC(=O)O)c1Cc1cc(CC(=O)O)ccc1OC` [Compound 50, (S)-3-(2-amino-5-(5-(carboxymethyl)-2-methoxybenzyl)-6-((1-(methylsulfonyl)heptan-3-yl)amino)pyrimidin-4-yl)propanoic acid], 100 to 1000 nM; as for `CCCCNc1nc(N)nc(C)c1Cc1cc(C(=O)NCCCC(=O)O)ccc1OC` [Compound 25, 4-(3-((2-amino-4-(butylamino)-6-methylpyrimidin-5-yl)methyl)-4-methoxybenzamido)butanoic acid], 100 to 1000 nM.
